Experimental data as given in ChEMBL document CHEMBL1152779, “Synthesis and applications of polyamine amino acid residues: improving the bioactivity of an analgesic neuropeptide, neurotensin” (J Med Chem, 2009).
Activity calls are given as the source filed them. The rule behind the calls is not given here. Numbered stars: 1 amine (or outer) side, 2 acyl side, 3 side chain; on linkers, the order of the positions; unused ones are H or OH. Square brackets hold non-standard residues; d marks the D form. Peptide text beside a SMILES is read from it. X1 = NCCCNCCCCNCCCNCCCNCCCC[C@H](N[*:1])C(=O)[*:2]; X2 = O=C([C@H](Cc1cccc2cc[nH]c12)N[*:1])[*:2]; NMeR = CN[C@@H](CCCNC(=N)N)C(=O)O; Tle = CC(C)(C)[C@H](N)C(=O)O

Experiments:
Mus musculus [1] = assay: Analgesic activity against formalin-induced paw pain in mouse assessed as effect on duration of paw licking at 4 mg/kg, ip 1 hr before formalin challenge; assay type: functional, organism-based; design: dose 4 mg/kg
Mus musculus [2] = assay: Analgesic activity against formalin-induced paw pain in mouse assessed as elimination of inflammatory phase at 4 mg/kg, ip 1 hr before formalin challenge; assay type: functional, organism-based; design: dose 4 mg/kg
[3] = molecular target: Neurotensin receptor type 1 (Homo sapiens, UniProt P30989); assay: Binding affinity to human recombinant NTS1 in HEK293T cells by competitive binding assay; assay type: cell-based, HEK-293T
Chain of Neurotensin receptor type 1 (P30989 whole entry): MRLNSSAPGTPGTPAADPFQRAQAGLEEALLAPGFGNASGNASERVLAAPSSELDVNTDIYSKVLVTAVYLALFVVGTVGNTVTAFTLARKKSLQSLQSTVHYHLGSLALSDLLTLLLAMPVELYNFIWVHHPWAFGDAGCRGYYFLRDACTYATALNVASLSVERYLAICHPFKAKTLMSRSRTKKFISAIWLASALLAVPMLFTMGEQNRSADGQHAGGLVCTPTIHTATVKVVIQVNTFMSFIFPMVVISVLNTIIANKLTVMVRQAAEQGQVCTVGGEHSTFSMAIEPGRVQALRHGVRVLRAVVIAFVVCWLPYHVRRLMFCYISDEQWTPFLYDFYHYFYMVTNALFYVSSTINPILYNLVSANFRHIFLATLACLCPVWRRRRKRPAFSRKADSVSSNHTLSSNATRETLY

Structure (SMILES)	Activity (Mus musculus [1])	Activity (Mus musculus [2])	Kd [3] [µM]
CC[C@H](C)[C@H](NC(=O)[C@H](Cc1ccc(O)cc1)NC(=O)[C@@H]1CCCN1C(=O)[C@H](CCCCN)NC(=O)[C@H](CCCCN)NC(=O)[C@H](CCCCNCCCNCCCNCCCCNCCCN)NC(C)=O)C(=O)N[C@@H](CC(C)C)C(=O)O (Ac-[X1]KKPYIL-OH)	Active	Active	
CN[C@@H](CCCN=C(N)N)C(=O)N[C@@H](CCCCN)C(=O)N1CCC[C@H]1C(=O)N[C@@H](Cc1cccc2cc[nH]c12)C(=O)N[C@H](C(=O)N[C@@H](CC(C)C)C(=O)O)C(C)(C)C (H-[NMeR]KP[X2][Tle]L-OH)			0.00155
CC[C@H](C)[C@@H]1NC(=O)[C@H](Cc2ccc(O)cc2)NC(=O)[C@@H]2CCCN2C(=O)[C@H](CCCCN)NC(=O)[C@H](CCCCN)NC(=O)[C@H](CC(C)C)NC(=O)[C@H]([C@@H](C)CC)NC(=O)[C@H](Cc2ccc(O)cc2)NC(=O)[C@@H]2CCCN2C(=O)[C@H](CCCCN)NC(=O)[C@H](CCCCN)NC(=O)[C@H](CC(C)C)NC1=O (cyclo(ILKKPYILKKPY))			0.15
